Test results taken from patent publication US12419308B2, “Phenylpyrazole insecticide compounds and compositions” (priority 2023, dated 2025).
Read-outs that look alike come from different tables or passages of the source.

Legend:
[1] = tested on: Human Cryopreserved Hepatocytes; assay: Metabolic stability in human cryopreserved hepatocytes; assay type: in vitro ADME
Procedure: The metabolic stability of the Compounds of Examples 1 and 4 is therefore evaluated to determine whether metabolic degradation results in metabolites of concern.
Briefly, Human Cryopreserved Hepatocytes (Gibco, lot. HUE125) are added to incubation wells in a 96-well assay plate at a density of 500,000 cells/mL in William's E Medium. […] The wells are incubated at 37° C. and stop solution is added to wells at time points: 0, 30, 60, 120, 240 min. The stop solution is ice-cold solution containing 0.5 μM labetalol in acetonitrile (100 μL/well) (2:1, vol/vol). Each time point is tested in triplicate. Analysis is carried out by LC-MS.
• Instrument: QExactive • Column: Luna Omega 1.6 μm polar C18 100 Å (150×2.1 mm) • Column temperature: 40° C. • Column No: 102+pre-column installed • Injection volume: 2 μl • Flux: 0.40 mL/min • Polarity: Negative • Fluent A: water Milli Q+0.1% FA • Fluent B: ACN+0.1% FA • Acquisition method: Full MS+DDS on the IL obtained with MassMetaSite (peak others ON).

[2] = Egg concentration analysis from topically treated chickens; assay type: in vivo; conditions: in vivo
Procedure: One animal is left untreated as a negative control.
A modified and optimized QuEChERS protocol was employed to extract the compounds from eggs. The shell is manually removed, and then each egg is transferred to a clean beaker and homogenized with an electric mixer for small volumes. 5 grams of homogenized egg is put into a 50 mL Falcon tube, and 5 mL of water is added and the samples are shaken for 10 minutes. Next, 10 mL of acetonitrile is added and the samples are shaken again for 10 minutes. Then the roQ salts (4.0 g MgSO4, 1.0 g NaCl, 1.0 SCTD and 0.5 g SCDS, Phenomenex P/N KS08909) are added to each sample, and the mixture is well shaken for 10 minutes. Samples are then centrifuged at 2500 g for 5 minutes at room temperature, and the supernatant is transferred to an HPLC vial for analysis. The same HPLC-MS method is used as described above.
One egg from two chickens is analyzed: one chicken treated with Fipronil and one chicken treated with the Compound of Example 1. The eggs are both from Day 5. The results are shown in the following tables expressed as relative LC-MS peak area: […]

Dermanyssus gallinae = assay: Antiparasitic efficacy on live chickens with natural mite infestation; assay type: in vivo; conditions: by day 5 of treatment; 0.25% (w/v) spray, 7.5 mg/kg once daily for 5 days
Procedure: Two animals are treated with the compound of Example 1, and two animals are treated with Fipronil, while one animal is left untreated as a negative control. The infestation by D. gallinae is monitored by checking the density of mites in particular areas of the animal's bodies (feet, legs, and wings), comparing pre-treatment levels of infestation to post-treatment levels.
When all pests have been eliminated, a 100% pest control capability was achieved. In the case of some chemical products, when the pest was not fully eliminated, the disinfestation capacity was measured by averaging the number of infesting organisms located in three distinct areas of the treated animals, at the beginning of the treatment, and at the end of the treatment.

[3] = tested on: adult worker honeybees, Apis mellifera L; conditions: contact
Source text: In accordance with OECD Test Guidelines No. 213 and 214, the test is considered valid if: (1) the average mortality of the control groups is ≤10% at the end of the test; and the average, control-corrected mortality of the reference item groups is ≥50% at the end of the test, at the tested dose (internal validity criteria according to POS BT200).
Young Apis mellifera L. worker honeybees are randomly collected in the morning of use or the day before from an adequately fed, healthy diseases-free and queen right beehive, not treated with chemical substances. Hives from an established apiary colony are used, and the colonies are inspected periodically, according to standard bee-keeping practices. All colonies are kept outside under field conditions and bees collect food from the environment. The last treatment against Varroa mites was done in November 2023. The bees are fed ad libitum with a water sucrose solution 50% w/v (or 500 g/L), prepared with tap water.
Adult worker honeybees are exposed to three increasing doses of the test item (see Table 2) by direct application to the thorax (droplets, see section 4.5.2). One control group is treated with propanol-water solution (ratio 80%-20%) in addition to test item groups.
Bee mortality is recorded after 4, 24 and 48 hours, and compared with the control value. If the mortality rate increases by more than 10% between 24 and 48 hours, whilst the control mortality rate remains ≤10%, the is extended to a maximum of 96 hours.
The test item is diluted in propanol-water solution (ratio 80%-20%) to prepare the contact solutions.
The bees used for the contact test are anaesthetized with carbon dioxide and individually treated by topical application of 2 μL of the test solutions onto the thorax using a micro applicator. The honeybees are then be moved to the cages and fed ad libitum with sucrose solution.
Disposable and well-ventilated cages with an internal volume not lower than 200 cm^3 are used. Each cage is equipped with a transparent lid, for a suitable observation of the bees from outside. The upper side of the cage has at least one hole for inserting the feeder: a syringe filled of 50% (w/v) aqueous sucrose solution is inserted in one hole.
The tests are conducted under the following conditions: (a) Temperature: 25.00[…]; (b) Relative humidity: 60.00[…], The honeybees are kept under constant darkness except during the assessments. Throughout the experimental phase, the temperature and relative humidity is continuously recorded with a dedicated data-logger with sensors located close to the test units.
The number of dead honeybees per cage is recorded after 4, 24 and 48 hours. If a prolonged observation period is required, further assessments are made every 24 hours, tip to a maximum duration of 96 hours. The amount of diet consumed per group is quantitatively estimated if treated diet will be left after 6 hours of exposure.
Data is summarized in tabular form, showing the number of live, dead and abnormal bees per experimental group. The mortality of each replicate is calculated as a percentage, comparing the number of dead bees to those introduced at the beginning. The mean value of the treated group is compared to the mean mortality of the respective control group(s) using the Abbott's formula modified by Schneider-Orelli (POS BT 200): […]

[4] = tested on: adult worker honeybees, Apis mellifera L; assay: Acute oral toxicity test in honeybees (OECD 213); assay type: in vivo
Procedure: Untreated 50% w/v sucrose solution with 0.2% of propanol-water solution (ratio 80%-20%) is used as a negative control.
The test item is diluted with aqueous sucrose solution 50% (w/v) to prepare the oral solutions. The bees used for the oral test are anesthetized with carbon dioxide for the time necessary to immobilize them and placed inside the test cages; 2 hours before the treatment they are starved. A volume of 200 μL (20 μL/bee) of treated diet is administered to each cage with a dispenser (e.g., a syringe without tip), weighed before and after filling.
The overall exposure period is 6 hours, during which consumption is monitored: the feeder is changed at the end of the six hours or once the treated diet has been consumed (usually within 3-4 hours). In both cases, the feeder is weighed and a new feeder with untreated 50% (w/v) sucrose solution is provided ad libitum, and the mean effective dose is calculated based on the actual consumption.

## N#Cc1nn(-c2c(Cl)cc(C(F)(F)F)cc2Cl)c2nc(O)cc(C(F)F)c12 [Example 4, 1-(2,6-dichloro-4-(trifluoromethyl)phenyl)-4-(difluoromethyl)-6-hydroxy-1H-pyrazolo[3,4-b]pyridine-3-carbonitrile]
[1]; after 240 minutes, 1 μM, 500,000 cells/mL, 37° C.
  Original compound still present: approximately 84.2%
[1]; human hepatocytes, up to 240 min, 1 μM
  Metabolic stability (in words): highly metabolically stable

## NC(=O)c1nn(-c2c(Cl)cc(C(F)(F)F)cc2Cl)c(N)c1[S+]([O-])C(F)(F)F (stereo not drawn) [Fipronil Amide, Fipronil amide]
[2]
  Relative LC-MS peak area of analyte in egg: 3.8

## N#Cc1nn(-c2c(Cl)cc(C(F)(F)F)cc2Cl)c(N)c1S(=O)(=O)C(F)(F)F [Fipronil Sulfone, Fipronil sulfone]
[2]; chicken, 5 days
  Relative LC-MS peak area of analyte in egg: 5.6

## N#Cc1nn(-c2c(Cl)cc(C(F)(F)F)cc2Cl)c(N)c1[S+]([O-])C(F)(F)F (stereo not drawn) [Fipronil, reference compound]
Dermanyssus gallinae
  Chickens free of mites: 100%
[3]; group T1, dose 0.002 μg/bee
  % CM (4 hours): 0.0%
  % CM (24 hours): 7.1%
  % CM (48 hours): 7.7%
[3]; group T2, dose 0.004 μg/bee
  % CM (4 hours): 0.0%
  % CM (24 hours): 25.0%
  % CM (48 hours): 30.8%
[3]; group T3, dose 0.006 μg/bee
  % CM (4 hours): 0.0%
  % CM (24 hours): 71.4%
  % CM (48 hours): 76.9%
[2]; chicken, 5 days
  Relative LC-MS peak area of analyte in egg: 4.8
[4]; group T1, dose 0.002 μg/bee
  % CM (4 hours): 0.0%
  % CM (24 hours): 20.8%
  % CM (48 hours): 23.8%
[4]; group T2, dose 0.004 μg/bee
  % CM (4 hours): 0.0%
  % CM (24 hours): 37.5%
  % CM (48 hours): 33.3%
[4]; group T3, dose 0.006 μg/bee
  % CM (4 hours): 3.3%
  % CM (24 hours): 58.3%
  % CM (48 hours): 66.7%
